Experimental data as given in patent US8829039B2, “Dihydroindolinone derivatives” (Shanghai Institute of Pharmaceutical Industry, priority 2008, dated 2014).

What was measured:
[1] = tested on: Human cervical cancer cell Hela; experiment: Anti-tumor activity assay (MTT), Hela; assay type: cell-based; conditions: 48 hrs, samples freshly prepared with DMSO, read-out: Inhibition rate; for inhibition at 0.1 µg/mL: final concentration 0.1 μg/mL; for inhibition at 1 µg/mL: final concentration 1 μg/mL; for inhibition at 10 µg/mL: final concentration 10 μg/mL
Procedure: (§1) These tests were carried out using conventional operations in the art. Specifically, the following materials and methods were employed:
(§2) Human cervical cancer cell Hela, human liver cancer cell SMMC-7721, human lung cancer cell A549, poorly differentiated human gastric adenocarcinoma cell BGC-823, human breast cancer cell MDA-MB-231.
(§3) To a bottle containing exponential growth phase cells in good condition, 0.25% trypsin solution was added. […] The cell suspension was seeded in a 96-well plate with an amount of 100 μL/well, incubated in a CO2 incubator for 24 hrs. 20 μL/well of tested compounds were added, followed by […], of 10% serum medium, and incubated for 48 hrs. 20 μL/well of MTT (5 mg/mL) was added to the 96-well plate, and the cells were incubated for 4 hrs in the incubator. After removing the supernatant, 150 μL/well of DMSO was added, and the cells were shaked in a horizontal swing bed for 10 minutes. Optical density value (OD value) of each well was measured with an ELISA analyzer at 490 nm, and cell inhibition rate was calculated. The corresponding solvent was used as negative control, and paclitaxel was used as positive control.

[2] = tested on: human liver cancer cell SMMC-7721; experiment: Anti-tumor activity assay (MTT), SMMC-7721; assay type: cell-based; conditions: 48 hrs, samples stored at −20° C. for one week, read-out: Inhibition rate; for inhibition at 0.1 µg/mL: final concentration 0.1 μg/mL; for inhibition at 1 µg/mL: final concentration 1 μg/mL; for inhibition at 10 µg/mL: final concentration 10 μg/mL
Procedure: as §1, §2, §3

[3] = tested on: poorly differentiated human gastric adenocarcinoma cell BGC-823; experiment: Anti-tumor activity assay (MTT), BGC-823; assay type: cell-based; conditions: 48 hrs, samples stored at −20° C. for one week, read-out: Inhibition rate; for inhibition at 0.1 µg/mL: final concentration 0.1 μg/mL; for inhibition at 1 µg/mL: final concentration 1 μg/mL; for inhibition at 10 µg/mL: final concentration 10 μg/mL
Procedure: as §1, §2, §3

[4] = tested on: human lung cancer cell A549; experiment: Anti-tumor activity assay (MTT), A549; assay type: cell-based; conditions: 48 hrs, samples stored at −20° C. for one week, read-out: Inhibition rate; for inhibition at 0.1 µg/mL: final concentration 0.1 μg/mL; for inhibition at 1 µg/mL: final concentration 1 μg/mL; for inhibition at 10 µg/mL: final concentration 10 μg/mL
Procedure: as §1, §2, §3

[5] = tested on: human breast cancer cell MDA-MB-231; experiment: Anti-tumor activity assay (MTT), MDA-MB-231; assay type: cell-based; conditions: 48 hrs, samples stored at −20° C. for one week, read-out: Inhibition rate; for inhibition at 0.1 µg/mL: final concentration 0.1 μg/mL; for inhibition at 1 µg/mL: final concentration 1 μg/mL; for inhibition at 10 µg/mL: final concentration 10 μg/mL
Procedure: as §1, §2, §3

[6] = tested on: Lung cancer cell H460; experiment: Inhibition of tumor cell proliferation in vitro (MTT), H460; assay type: cell-based; conditions: Homo sapiens, NCI-H460, 48 hrs, read-out: Growth inhibition in vitro IC50
Procedure: (§4) The activity assay of the compounds of the invention was carried out through common methods in the art. Commercially available Sunitinib was used as positive control, and lung cancer cell H460, colon cancer cell COLO205 and HT29, breast cancer cell A435 were used as exemplary tumor cells. The tested compounds were prepared by the methods disclosed in the Examples above.
(§5) A certain amount (100 μL/well, 0.5−1×10^4 cells/mL) of lung cancer cell H460, colon cancer cell COLO205, and breast cancer cell A435, etc. in logarithmic growth phase were seeded in a 96-well plate, and incubated in an incubator for 24 hrs at 37° C. and 5% CO2. Afterwards, tested compounds and positive control (20 μL/wells) were added, followed by 80 µL of 10% serum medium, and then the tumor cells were incubated for further 48 hrs at 37° C. and 5% CO2. Afterwards, MTT (5 mg/mL) was added to the 96-well plates (20 μL/well), and the cells were incubated for another 4 h. After removing the supernatant, the cells were dissolved with DMSO (150 μL/well) and measured with a microplate reader at 490 nm.

[7] = tested on: colon cancer cell COLO205; experiment: Inhibition of tumor cell proliferation in vitro (MTT), COLO205; assay type: cell-based; conditions: Homo sapiens, COLO 205, 48 hrs, read-out: Growth inhibition in vitro IC50
Procedure: as §4, §5

[8] = tested on: breast cancer cell A435; experiment: Inhibition of tumor cell proliferation in vitro (MTT), A435; assay type: cell-based; conditions: 48 hrs, read-out: Growth inhibition in vitro IC50
Procedure: as §4, §5

[9] = tested on: human colon cancer HT-29 cells transplanted in nude mice; experiment: Growth inhibition of human cancer HT-29 cells transplanted in nude mice; assay type: in vivo; conditions: for Body weight d0 / Body weight d21: nude mice with HT-29 tumor; for Body weight d0: d0, time of administration in separate cages; for Body weight d0 / TV d0: 30 mg/kg group; for Body weight d21 / T/C (%) / RTV / TV d21: 30 mg/kg intragastrically once a day for 21 days; for T/C (%): relative tumor proliferation rate TRTV/CRTV; for RTV: relative tumor volume TVt/TV0; for TV d0: tumor volume at d0, time of administration in separate cages; for TV d21: tumor volume at d21
Procedure: A piece of tumor tissue in vigorous growth phase was obtained and cut into the size of about 1.5 mm^3, and subcutaneously inoculated into the right axillary region of nude mice aseptically. Diameters of transplanted tumors in nude mice were measured with a vernier caliper. After tumors grew to 100˜300 mm^3, the animals were randomly divided into 6 groups: model control group, Sunitinib group (30 mg/kg), Compound 1 group (30 mg/kg), Compound 2 group (30 mg/kg), Compound 3 group (30 mg/kg), Compound 4 group (30 mg/kg). […] Meanwhile, the negative control group was administered equivalent amount of sterile saline. The dynamic observation of antitumor effects of compounds 1-4 and Sunitinib was performed by measuring tumor diameters. […] The general behavior of nude mice was observed and recorded daily. (1) Tumor volume (TV), calculated by the equation: […] wherein a, b represent length and width, respectively. […] RTV=TVt/TV0 wherein TV0 represents the tumor volume at the beginning of administration in separated cages (ie. d0), TVt represents the tumor volume of each measurement. […] T/C %=(TRTV/CRTV)×100% TRTV: RTV of positive control group and each test compound group. CRTV: RTV of model control group.

[10] = tested on: Fibroblast NIH/3T3; experiment: Inhibition of fibroblast NIH/3T3 proliferation (MTT); assay type: cell-based; conditions: Mus musculus, NIH3T3, 48 h, read-out: Inhibition of NIH/3T3 cell proliferation in vitro IC50
Source text: The method commonly used at present for studying fibroblast proliferation associated diseases, i.e., for studying tissue and organ fibrosis, is measuring effects of test compounds on NIH/3T3 cell proliferation (Gao Z. M., Wan K., Effect of inhibition of NIH/3T3 cell proliferation by Cantharidin on prevention and treatment of organ and tissue fibrosis. Chinese Journal of Clinical Rehabilitation, 2004 (2). Tao Y. Y., Wang X. L., Effects of Salvianolic Acid-B on TGF-β1/ERK Signaling Transduction in NIH/3T3 Fibroblast. Journal of Capital Medical University, 2007 (2)).
Fibroblast NIH/3T3 in logarithmic growth phase was seeded in a 96-well plate, by a certain number of cells (100 μL/well, 0.5−1×10^4 cells/mL). After incubating for 24 h, the screened samples (20 μl/well) were added (directly added after cell suspension was seeded in the plate), incubated for further 48 h at 37° C. and 5% CO2. Afterwards, MTT (5 mg/mL) was added to the 96-well plate (20 μL/well). The cells were incubated for another 4 h, and then dissolved with DMSO (150 μL/well) and measured with a microplate reader at 490 nm. The inhibition rate and IC50 were calculated.

CCN1CCCC1CNC(=O)c1c(C)[nH]c(/C=C2\C(=O)Nc3ccc(F)cc32)c1C (stereo not shown) [Compound 1, N-[(1-ethylpyrrolidin-2-yl)methyl]-5-(5-fluoro-2-oxo-1,2-dihydroindole-3-methylene)-2,4-dimethyl-1H-pyrrole-3-formamide]
inhibition at 0.1 µg/mL [1]: 4.69%
inhibition at 1 µg/mL [1]: 32.5%
inhibition at 10 µg/mL [1]: 97.4%
inhibition at 0.1 µg/mL [2]: -21.2%
inhibition at 1 µg/mL [2]: -0.47%
inhibition at 10 µg/mL [2]: 88.5%
inhibition at 0.1 µg/mL [3]: 14.8%
inhibition at 1 µg/mL [3]: 20%
inhibition at 10 µg/mL [3]: 93.9%
inhibition at 0.1 µg/mL [4]: 18.6%
inhibition at 1 µg/mL [4]: 31.1%
inhibition at 10 µg/mL [4]: 99.3%
inhibition at 0.1 µg/mL [5]: -8.3%
inhibition at 1 µg/mL [5]: 6.9%
inhibition at 10 µg/mL [5]: 92.2%
IC50 [6]: 61 nM
IC50 [7]: 78 nM
IC50 [8]: 63 nM
growth inhibition of human colon cancer HT-29 cells transplanted in nude mice (in words) ([9]; 30 mg/kg continuously administered intragastrically): strongest inhibition of tumor proliferation
Body weight d0 [9]: 20.2 ± 1.9 g
Body weight d21 [9]: 21.5 ± 1.3 g
T/C (%) [9]: 10.1%
RTV [9]: 0.9 ± 0.2
TV d0 [9]: 194.7 ± 57.7 mm^3
TV d21 [9]: 163.7 ± 33.6 mm^3
IC50 [10]: 205 nM
melting point: 232 to 236 °C

Cc1[nH]c(/C=C2\C(=O)Nc3ccc(F)cc32)c(C)c1C(=O)NCCC1CCCN1C (stereo not shown) [Compound 2, N-[(1-methylpyrrolidin-2-yl)ethyl]-5-(5-fluoro-2-oxo-1,2-dihydroindole-3-methylene)-2,4-dimethyl-1H-pyrrole-3-formamide]
inhibition at 0.1 µg/mL [1]: -6.18%
inhibition at 1 µg/mL [1]: 24.7%
inhibition at 10 µg/mL [1]: 97.2%
inhibition at 0.1 µg/mL [2]: -6.59%
inhibition at 1 µg/mL [2]: -10.8%
inhibition at 10 µg/mL [2]: 74.8%
inhibition at 0.1 µg/mL [3]: 4.73%
inhibition at 1 µg/mL [3]: 20.2%
inhibition at 10 µg/mL [3]: 76.2%
inhibition at 0.1 µg/mL [4]: 0.59%
inhibition at 1 µg/mL [4]: 29.9%
inhibition at 10 µg/mL [4]: 100%
inhibition at 0.1 µg/mL [5]: -0.2%
inhibition at 1 µg/mL [5]: 16.5%
inhibition at 10 µg/mL [5]: 71.6%
IC50 [6]: 160 nM
IC50 [7]: 110 nM
IC50 [8]: 85 nM
Body weight d0 [9]: 19.7 ± 1.7 g
Body weight d21 [9]: 19.7 ± 1.6 g
T/C (%) [9]: 17.8%
RTV [9]: 1.6 ± 0.9
TV d0 [9]: 193.5 ± 61.9 mm^3
TV d21 [9]: 342.9 ± 284.7 mm^3
IC50 [10]: 536 nM
melting point: 241 to 244 °C

Cc1[nH]c(/C=C2\C(=O)Nc3ccc(F)cc32)c(C)c1C(=O)NCC1CCCCN1 (stereo not shown) [Compound 3]
inhibition at 0.1 µg/mL [1]: -3.2%
inhibition at 1 µg/mL [1]: 50.8%
inhibition at 10 µg/mL [1]: 98%
inhibition at 0.1 µg/mL [2]: -18.6%
inhibition at 1 µg/mL [2]: 4%
inhibition at 10 µg/mL [2]: 62.1%
inhibition at 0.1 µg/mL [3]: -5.42%
inhibition at 1 µg/mL [3]: 17%
inhibition at 10 µg/mL [3]: 78.8%
inhibition at 0.1 µg/mL [4]: 11.9%
inhibition at 1 µg/mL [4]: 22.7%
inhibition at 10 µg/mL [4]: 94.2%
inhibition at 0.1 µg/mL [5]: -5.4%
inhibition at 1 µg/mL [5]: 0.5%
inhibition at 10 µg/mL [5]: 88.6%
IC50 [6]: 140 nM
IC50 [7]: 110 nM
IC50 [8]: 68 nM
Body weight d0 [9]: 20.6 ± 2.0 g
Body weight d21 [9]: 20.8 ± 2.3 g
T/C (%) [9]: 15.0%
RTV [9]: 1.3 ± 0.7
TV d0 [9]: 196.7 ± 62.7 mm^3
TV d21 [9]: 290.4 ± 238.4 mm^3
IC50 [10]: 530 nM
melting point: 263 to 266 °C
